We go through 5 compounds from article PMC12323867 (RSC Medicinal Chemistry, 2025).

Molecules are shown by their SMILES. “Also recorded” adds a separate entry of the source. Like-named read-outs stand apart in the source and are kept apart here.

The test system of one data set is H3K4me2 in HCT116 cells. Description: Histone methylation H3K4me2 by western blot. To be noted: HCT116, TCP series conditions (0.2–20 μM). It counts as cell-based, human. The procedure: We next screened 25–33 and SP2509 over a concentration range of 0.1–10 μM in HCT116 cells (obtained from ATCC, CCL-247) and determined LSD1 abundance after 24 hours with an antibody for LSD1 (Fig. S4 ^†). […] Using the same conditions, we also determined the effects of SP2509, 25, 27, 28, 30 and 31 on histone H3 lysine 4 dimethyl (H3K4me2) a validated substrate for LSD1 using a specific antibody for H3K4me2 (Fig. S4 ^†).
Compounds 39–41, 49, 52 and 54 were screened for LSD1 degradation in HCT116 cells using a specific antibody for LSD1. This was performed side-by-side with TCP. Compounds were tested at concentration ranges of 0.2–20 μM and LSD1 abundance was quantified at 24 hours (Fig. S5 ^†). 49, 52 and 54 were also evaluated at 48 and 72 hours. […] We also determined the effects of these compounds on the histone methyl marker H3K4me2 (Fig. S5 and S6 ^†).
2.5 Protocols for LSD1 degradation and histone methylation in HCT116 cells HCT116 human colon carcinoma cells were grown in Dulbecco’s Modified Eagle Medium (DMEM) supplemented with Fetal Bovine Serum (FBS, 10% final concentration) and 1x glutamine/penicillin/streptomycin. Cells were incubated at 37 °C and 5% CO2. Cells were treated with compounds (0.1-20 µM) with a final DMSO volume of 0.04%. DMSO (0.04%) treated and untreated (WT) cells were included as controls.
(§1) HCT116 cells were seeded into six well plates (400000 cells per well) and after requisite compound treatment time (24h, 48h, 72h) cells were harvested and either snap-frozen in liquid nitrogen or lysed in lysis buffer (50mM Tris-HCl, 150 mM NaCl, 0.5% NP-40, 0.5% Triton X-100 + protease inhibitor) on ice for 30 mins. This was centrifuged (15000 rpm, 4 °C, 15 mins) and the supernatant collected.
H2SO4 (0.4 M, equal volume) was added to the pellets for histone extraction and the tubes incubated overnight at 4 °C. Following this, the histone extract was centrifuged (15000 rpm, 4 °C, 15 mins) and the supernatant collected. Protein concentrations of whole cell extract were quantified via Bradford Assay using BIO-RAD Protein Assay Dye Reagent Concentrate.
(§2) Western blots were run on NuPAGE 4-12% Bis-Tris gels, with 30 µg of protein (whole cell extract) or an equivalent volume of histone extract loaded per lane, with all extracts dyed with 4x NuPAGE LDS Sample Buffer. PageRuler Plus Prestained Ladder was used as a reference. Gel electrophoresis was carried out at 140 V for 60-90 mins, following which the proteins were transferred onto nitrocellulose membrane at 30 V for 60 mins. Membranes were blocked in LI-COR Intercept Blocking Buffer overnight at RT on a roller, following which the membrane was probed with primary antibodies for 1 h at RT. The membrane was washed with PBS + 0.1% Tween (3 x 10 mins), then incubated with secondary antibodies for 50 mins at RT. The membrane was washed again (PBS Tween 2 x 10 mins, PBS 1 x 10 mins) following which the blot was visualised with the Odyssey Infrared Imaging System. Image processing and quantification was performed with ImageStudio Lite. […]
(§3) a-tubulin (mouse) – Sigma, t5168 (1:10000 dilution)
A general note: A western blot detects proteins with antibodies after separation by electrophoresis.

The subject of another data set is HCT116 cells. Description: CTG cell viability assay. The format is cell-based, human. To be noted: HCT116, CellTiter-Glo, 0.0041-10 uM, 24-48 h (Fig. S3). As for the experimental part:
2.4. CTG cell viability assays
HCT116 cells were seeded onto 96-well plates at a density of 2000 cells/well and allowed 24 h to settle. Cells were then treated with LSD1 inhibitors (0.0041-10 uM) alongside WT, DMSO and cell free control wells for 24-48 h. After this time, plates were equilibrated to RT for 30 mins, then CellTiter-Glo (Promega, G9242) reagent (5 uL/100 uL media) was added. Cells were lysed on an orbital shaker for 10 mins, then incubated at RT for 2 mins to allow luminescence to stabilise, following which luminescence was recorded on a HiDEX Sense microplate reader. To obtained plotted values, luminescence of each tested well was divided by that of the DMSO control, which were plotted against concentration using GraphPad Prism. […] was applied to obtain apparent IC50 values where possible.
Figure S3. Cell viability dose response curves
(1 picture or pasted object on this page, not shown here)

Another data set deals with LSD1. More on the design: method as in PMID 38742921. Particulars: cited from earlier work.
Data set [1] has as its target T1, HDAC1-CoREST-LSD1 complex (Homo sapiens, UniProt O60341).
T1 construct: full length native LSD1 (UniProt ID: O60341); made in house; host or cells: HEK 293F cells (co-transfection, pcDNA3 vectors)
Description: LSD1 HRP-coupled demethylase assay, TCP analogues. The format is biochemical. Particulars: for inhibition at 50 µM: read-out: LSD1 inhibition at 50 μM. The procedure:
We then evaluated LSD1 inhibition in the LSD1-HDAC1-CoREST complex using the established horseradish peroxidase (HRP) assay.[8]
2. Supplementary Information: Biology
2.1. LSD-HDAC1-CoREST expression and purification
Lysis Buffer (Buffer A) Wash Buffer (Buffer B)
• 50 mM Tris/Cl pH 7.5 • 50 mM Tris/Cl pH 7.5
• 50 mM Potassium Acetate • 50 mM Potassium Acetate […]
Cleavage Buffer (Buffer C) Gel Filtration Buffer (Buffer D)
• 50 mM Tris/Cl pH 7.5 Filtered at vacuum.
• 50 mM Potassium Acetate • 50 mM Tris/Cl pH 7.5
• 5 % v/v Glycerol • 50 mM Potassium Acetate
• 0.5 mM tris(2- • 0.5 mM TCEP carboxyethyl)phosphine (TCEP)
The CoREST ternary complex was comprised of full length native LSD1 (UniProt ID: O60341), full length HDAC1 (UniProt ID: Q13547) and N-terminally truncated RCOR1 (86-485aa) (UniProt ID:
Q9UKL0). Protein constructs were cloned into pcDNA3 vector. The RCOR1 constructs contained an N-terminal (His)10(Flag)3 tag followed by a Tev protease cleavage site. The constructs for ternary complex were co-transfected into suspension-grow HEK 293F cells (Thermofisher Scientific) with polyethylenimine (PEI) (Sigma) and harvested after 48 hours. This section of the procedure was carried out as described previously in literature.11,12
Cell pellets from 1.2 L culture were defrosted, and buffer A (30 mL) was added. The solution was sonicated (Soniprep 150) in an beaker of ice using a 9 mm probe at 10 ampules; operated with 10 […]
Components and concentrations for the HRP-coupled demethylase assay […]
The assay components are shown at their final concentrations per well in the table above. CoREST complex (HDAC 1/RCOR1/LSD1) was added to the assay buffer alongside either DMSO or the relevant inhibitor at the desired concentration on black-walled 96 well plates. Alongside this was another control, with DMSO but no CoREST or inhibitor. Plates were spun to 3000 rpm between each addition of a reagent. Plates were incubated at 20 °C for 30 mins, following which HRP/Amplex Ultrared (1:1 mixture) and peptide was added. Plates were spun, then read on an PerkinElmer 2030 Explorer plate reader, with excitation of 530 nm and […] of 590 nm, with 7 readings taken over […]
Components, where bought in, are listed below:
HRP – Pierce™ Horseradish Peroxidase, Invitrogen
H3K4me2 peptide – Histone H3 dimethyl lysine-4 peptide, Enzo Life Sciences Amplex UltraRed, ThermoFisher Scientific
To the assay buffer was added HRP/AMP in each well to concentrations equal to those in above, following which hydrogen peroxide solution (diluted from 3% hydrogen peroxide solution into a 20 mM stock) was added, in a 1 in 3 dilution series with final concentrations starting from 3 mM.
Negative control wells contained either 100% buffer or as above with no hydrogen peroxide solution.

The next data set deals with T2, LSD1 in HCT116 cells (Homo sapiens, UniProt O60341).
T2 construct: host or cells: HCT116
As to the kind of experiment: LSD1 degradation (LSD1 abundance) by western blot. It counts as cell-based. The procedure: Using the same conditions, we also determined the effects of SP2509, 25, 27, 28, 30 and 31 on histone H3 lysine 4 dimethyl (H3K4me2) a validated substrate for LSD1 using a specific antibody for H3K4me2 (Fig. S4 ^†).
Compounds were tested at concentration ranges of 0.2–20 μM and LSD1 abundance was quantified at 24 hours (Fig. S5 ^†). 49, 52 and 54 were also evaluated at 48 and 72 hours. […] We also determined the effects of these compounds on the histone methyl marker H3K4me2 (Fig. S5 and S6 ^†).
2.5 Protocols for LSD1 degradation and histone methylation in HCT116 cells HCT116 human colon carcinoma cells were grown in Dulbecco’s Modified Eagle Medium (DMEM) supplemented with Fetal Bovine Serum (FBS, 10% final concentration) and 1x glutamine/penicillin/streptomycin. Cells were incubated at 37 °C and 5% CO2. Cells were treated […]
untreated (WT) cells were included as controls.
as §1
H2SO4 (0.4 M, equal volume) was added to the pellets for histone extraction and the tubes incubated overnight at 4 °C. Following this, the histone extract was centrifuged (15000 rpm, 4 °C, 15 mins) and the supernatant collected. Protein concentrations of whole cell extract were quantified via Bradford Assay using BIO-RAD Protein Assay Dye Reagent Concentrate. […]
as §2, with “or” for “Western blots were run on NuPAGE 4-12% Bis-Tris gels, with 30 µg of protein (whole cell extract) or”
as §3

Where [2] appears, read: complex 50 nM, mean ± SD from three replicates.
Where [3] appears, read: HCT116, 0.2–20 μM, 24 hours, LSD1 antibody.

In the case of `N[C@@H]1C[C@H]1c1ccccc1` (racemic) [TCP, tranylcypromine], the “H3K4me2 histone methyl marker” value in the data set with H3K4me2 in HCT116 cells was “neither did we observe changes; also recorded: did not increase H3K4me2 levels”. For the same compound, in the data set on HCT116 cells, the “cytotoxic effects in cells” value is “not observed”. Also, the “ability to increase H3K4me2 on peptides and nucleosomes” value in the data set with LSD1 is listed as “increased H3K4me2 levels”.

For the compound `COc1ccc(-c2c(-c3ccc(C#N)c(F)c3)nc(N3CCC(N)CC3)n(C)c2=O)cc1F` [CC-90011], the “ability to increase H3K4me2 on peptides and nucleosomes” value in the data set on LSD1 is “increased H3K4me2 levels”.

As for `N[C@H]1CC[C@H](N[C@@H]2C[C@H]2c2ccccc2)CC1` [ORY1001, reference compound], the inhibition at 50 µM in data set [1] is 100%. Besides, the “H3K4me2 histone methyl marker” value in the data set on H3K4me2 in HCT116 cells is on record as “neither did we observe changes; also recorded: did not increase H3K4me2 levels”. Further, the “cytotoxic effects in cells” value in the data set with HCT116 cells was “not observed”.

Regarding `Cc1ncsc1-c1ccc(CNC(=O)[C@@H]2C[C@@H](O)CN2C(=O)[C@@H](NC(=O)COCCOCCOCCNC(=O)c2ccc([C@@H]3C[C@H]3N)cc2)C(C)(C)C)cc1` [compound 49], the IC50 in data set [1] (setting [2]) came to 0.063 µM. Also, the inhibition at 50 µM in data set [1] (single concentration 50 μM, complex 50 nM, compared to no compound treatment control) stood at 100%. For the same compound, the LSD1 degradation result on LSD1 in HCT116 cells (setting [3]) is listed as “no degradation”; on LSD1 in HCT116 cells (HCT116, 48 and 72 hours), “no degradation”. The “H3K4me2 histone methyl marker” value in the data set with H3K4me2 in HCT116 cells was “no changes”.

`N[C@@H]1C[C@H]1c1ccc(C(=O)NCCc2ccc(OCCCCCCCCCCCC(=O)NCCNc3cccc4c3C(=O)N(C3CCC(=O)NC3=O)C4=O)cc2)cc1` (some centres unmarked) [compound 54]: the IC50 in data set [1] (complex 50 nM) is 0.28 µM; in data set [1] (setting [2]), 0.282 ± 0.04 µM. The LSD1 degradation result at LSD1 in HCT116 cells (setting [3]) was “no degradation”; on LSD1 in HCT116 cells (HCT116, 48 and 72 hours), “no degradation”. Further, the “H3K4me2 histone methyl marker” value in the data set with H3K4me2 in HCT116 cells is listed as “no changes”.

One may read the inhibition as the drop in the measured response relative to a control, in per cent. By IC50 is commonly meant the concentration needed to halve the response being measured. A low value points to greater potency in that assay.
